Consider four compounds from article PMC7330483, “Identification of a Broad-Spectrum Viral Inhibitor Targeting a Novel Allosteric Site in the RNA-Dependent RNA Polymerases of Dengue Virus and Norovirus” (Frontiers in Microbiology, 2020).

As usually defined, the IC50 is the point on the concentration scale where inhibition reaches its midpoint. As usually defined, the CC50 is the concentration that lowers cell viability or growth by half. What is called Kd is the free concentration of one partner at which half of the binding sites on the other are occupied at equilibrium, for simple one-to-one binding. A word on the EC50: it is the concentration that produces a half-maximal response. In general, inhibition refers to the percentage by which the read-out fell short of the control.

Entries after “also recorded” stand apart in the source; their conditions may differ.

The target in data set [1] is T1, DENV RdRp (Dengue virus type 3, UniProt Q6YMS4). The data set is described as follows: DENV-RdRp inhibition assay (PicoGreen dsRNA formation). The class given is biochemical. Further details: RdRp gens of DENV; inferred from Ni-NTA purification and the pET-21a(+) vector); made in house; host or cells: Escherichia coli BL21. As to conditions: 40 μM compound. As to the method: Polymerase activity was measured by detecting the formation of double-stranded RNA (dsRNA) using the fluorescent dye PicoGreen ([Singer et al., 1997]). RdRp assays were performed in a black 96-well plates, which protects reaction mixture from light. In vitro RNA synthesis assays were performed using a single-stranded RNA poly(C) as template and GTP as substrate in a 25 μL reaction mixture. 5 μL of DENV-RdRp (20 μM), dissolved in a reaction buffer containing 20 mM Tris–HCl (pH 7.4), 2.5 mM MnCl2, 5 mM DTT, was incubated with 1 μL of 1 mM compound (RAI-5, RAI-13, RAI-14, and JF-31-MG46 served as positive control) or the compound vehicle DMSO at 30°C for 10 min. Subsequently, 1 μL of 1 mg/mL poly(C) and 2 μL of 625 μM GTP were added into the mixture for 60 min at 30°C. The final concentrations of the reaction components are 4 μM DENV-RdRp, […], 50 μM GTP, 40 μM compound, 4% DMSO, […] (pH 7.4), 2.5 mM MnCl2 and 5 mM DTT. The reaction was terminated with 10 mM EDTA. After that, 175 μL of fluorescent dye PicoGreen, diluted 200-fold with TE buffer, was added to each well for 5 min at room temperature. Microplate reader was used to quantify the amount of dsRNA at standard wavelengths (excitation 480 nm, emission 520 nm).

In a further data set the test system is hNV-RdRp. The data set is described as follows: hNV-RdRp inhibition assay (PicoGreen dsRNA formation). The format is biochemical, Norovirus GII.4 Sydney 2012. As to conditions: dose response, two-fold dilutions.
The next data set relates to A549 cells. The data set can be described thus: Cytotoxicity analysis (Cell Counting kit-8), A549. The class given is cell-based. As to conditions: up to 10 μM, 48 h, CCK-8. The protocol:
(§1) Twenty-four hour prior to the cytotoxicity assay, 4 × 10^4 RAW264.7 or A549 cells were seeded in 96-well plates. After that, 2-fold serial dilutions (from 0.625 to 40 μM) of RAI-13 were added to the cells. Cells treated with DMSO were served as the control. Cells were cultivated for 48 h, after that the cell viability was assessed by Cell Counting kit-8.
Background: Tetrazolium dyes change colour on reduction, which living cells bring about.

Data set [2] can be described thus: Cytotoxicity analysis (Cell Counting kit-8), A549. The format is cell-based. The settings on record: human, A549 cells, CCK-8. The protocol: as §1
The test system of a further data set is RAW264.7 cells. The data set is described as follows: Cytotoxicity analysis (Cell Counting kit-8), RAW264.7. The format is cell-based. As to conditions: up to 10 μM, 48 h, CCK-8. The protocol: as §1
Assay in data set [3]: as above
The format is cell-based. The settings on record: mouse, RAW264.7 cells, CCK-8. The protocol:
as §1

Data set [4] addresses T1, DENV RdRp. The data set can be described thus: Bio-layer interferometry (BLI) binding assay, DENV RdRp.
The test system of the next data set is VSV-G/HIV-Fluc. The format is cell-based, human immunodeficiency viruses type 1 (HIV-1).
In another data set the test system is MNV(SH1603). The data set can be described thus: Infection assay with MNV in RAW264.7 cells (qRT-PCR). The format is cell-based, murine norovirus (MNV). Background: Real-time PCR tracks product formation cycle by cycle.
The test system of the next data set is Jc1-Gluc HCVcc. The data set is described as follows: Infection assay with Jc-1-Gluc HCVcc in Huh7.5.1 cells. The class given is cell-based, hepatitis C virus (HCV). As to conditions: Hepatitis C virus. The protocol: 2 × 10^4 per well Huh7.5.1 cells were seeded into 96-well plates for 24 h, and then cells were incubated with RAI-13 (1 μM) and Jc1-Gluc HCVcc at an MOI of 1 for 4 h. Next, the culture supernatants were replaced by Fresh medium with 1 μM RAI-13. After 48 h, we measured the amounts of infectious Jc1 HCVcc in the supernatant by detecting the activity of Gaussia luciferase (Gluc), using a Centro XS3 LB 960 luminometer.

The next data set addresses hNV RdRp. The data set can be described thus: Bio-layer interferometry (BLI) binding assay, hNV RdRp. The settings on record: read-out: KD hNV RdRp, 1:1 binding model, global fit.
The conditions of data set [5]: oral, rat; no reference given; cited from earlier work.
The next data set has as its system DENV2 (Tr1751). The data set can be described thus: Infection assay with DENV2 in A549 cells (qRT-PCR). The format is cell-based. The protocol:
5 × 10^5 per well A549 cells were seeded into 6-well plates for 24 h, and infected with DENV2 (Tr1751) at an MOI of 0.1 in the presence of RAI-13 with 2-fold dilutions (from 0.08 to 20 μM) for 4 h. The culture supernatants were replaced by Fresh medium with RAI-13 with 2-fold dilutions. Cells were harvested at 48 h.p.i. The RNA extraction kit was used to extract total RNA. The level of viral RNA was determined by qRT-PCR analysis through one-step SYBR PrimeScript RT-PCR kit ([Yi et al., 2019]). The primer pair (forward: 5′-[…]-3′ and reverse: 5′-[…]-3′) amplifies partial envelop protein E gene of DENV2. The Forward and Reverse primers were also, respectively, used for minus-strand and plus-strand RNA reverse transcription. Human glyceraldehyde-3-phosphate dehydrogenase (hGAPDH) was served as an internal control and amplified with primers 5′-ATCA[…]-3′ and 5′-[…]-3′.

The subject of data set [6] is Gaussia luciferase (Gluc). The data set is described as follows: Effect on Gluc activity in pcDNA-Gluc transfected Huh7.5.1 cells (negative control). The format is cell-based. As to conditions: concentrations up to 5 μM, 48 h.
Data set [7] deals with DENV RdRp. Further details: method as in Noble et al., 2016. The settings on record: ref Noble et al., 2016; read-out: KD DENV RdRp (literature); cited from earlier work.

Regarding `Cc1ccc(NC(=O)Nc2cc(C(F)(F)F)ccc2F)cc1Nc1ccc2c(c1)NC(=O)/C2=C\c1ccc[nH]1` [RAI-14, GNF-5837], the “inhibitory effect on DENV RdRp activity” value on DENV RdRp [1] is “no inhibitory effect”. In addition, in the data set on hNV-RdRp, the IC50 was found to be 45.5 µM.

Turning to `CN1CCN(c2ccc(C(=O)Nc3n[nH]c4ccc(Cc5cc(F)cc(F)c5)cc34)c(NC3CCOCC3)c2)CC1` [RAI-13, Entrectinib], the “cytotoxic effect on A549 cells” value with A549 cells was “No cytotoxic effect; also recorded: did not observe apparent cytotoxicity”. Besides, the CC50 at 48 h came out at 20.8 µM in [2] and 13.2 µM in data set [3]. Further, the “cytotoxic effect on RAW264.7 cells” value with RAW264.7 cells is “No cytotoxic effect; also recorded: did not observe apparent cytotoxicity”. Also, the “inhibitory effect on DENV RdRp activity” value against DENV RdRp [1] is on record as “markedly inhibited”. Also, the results for the Kd on DENV RdRp [4] and at hNV RdRp were 166 µM and 39.9 µM, respectively. Also, the “inhibition of HIV-1 (VSV-G/HIV-Fluc) infection” value with VSV-G/HIV-Fluc is listed as “did not show any inhibition effect”. Further, the “plus-strand and minus-strand RNA levels of MNV” value in the data set with MNV(SH1603) (2.5 μM, infected RAW264.7 cells) was “inhibits the synthesis of both plus-strand and minus-strand RNA”. Further, the 50% inhibitory concentration (IC50) with MNV(SH1603) (Norwalk virus, RAW264.7, in abstract, read-out: IC50 inhibition of MNV infection (abstract)) was found to be 2.01 µM; in the data set with DENV2 (Tr1751) (Dengue virus, DENV2, A549, read-out: IC50 inhibition of DENV2 infection (abstract)), 2.43 µM; in the data set on hNV-RdRp it was 46.9 µM. Moreover, the EC50 in the data set on MNV(SH1603) (Norwalk virus, RAW264.7 cells, 48 h, MNV RNA by qRT-PCR, read-out: EC50 inhibition of MNV infection) came out at 2.01 µM; in the data set on DENV2 (Tr1751) (Dengue virus, A549 cells, 48 h, DENV2 RNA by qRT-PCR, read-out: EC50 inhibition of DENV2 infection) it was 2.43 µM. In the data set with Jc1-Gluc HCVcc (Huh-7.5.1, 48 h, read-out: inhibition of Jc1 HCVcc infection), the inhibition at 1 µM is 95%. In the data set on Jc1-Gluc HCVcc (Huh-7.5.1, read-out: inhibition of HCV infection (abstract)), the inhibition at 2 µM worked out at 95%. In addition, the LD50 entry in data set [5] was “above 2000 mg/kg”. In addition, the “plus-strand and minus-strand RNA levels of DENV2” value in the data set on DENV2 (Tr1751) (2 μM, infected A549 cells) was “inhibits the synthesis of both plus-strand and minus-strand RNA”. Also, the “effect on Gluc activity” value in [6] is on record as “no inhibitory effect”.

Consider `COc1ccc(CC(=O)O)cc1-c1ccccc1` [JF-31-MG46, 2-(4-methoxy-3-phenyl-phenyl)ethanoic acid], for which the Kd on DENV RdRp [7] was 210 µM.

In the case of `O=c1[nH]c2ccccc2n1C1CCN(Cc2ccc(-c3nc4cc5[nH]cnc5cc4nc3-c3ccccc3)cc2)CC1` [RAI-5, AKT inhibitor VIII], the “inhibitory effect on DENV RdRp activity” value against DENV RdRp [1] is “no inhibitory effect”. The compound also displayed an IC50 in the data set with hNV-RdRp of 47.3 µM.
